Source: PubChem BioAssay AID328 (DTP/NCI, 2004)
Where “and” joins values, the source holds several entries; their conditions need not be identical. Identical values can stand only once. Inconclusive results and toxic doses are left out.

Tested on: BDF1 mice, P388 leukemia ip, median survival T/C
Assay: NCI In Vivo Anticancer Drug Screen. Data for tumor model P388 Leukemia (intraperitoneal) in B6D2F1 (BDF1) mice
Conditions: endpoint: median survival time, higher = longer survival
How it was run: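 Survival ratio, drug arm over vehicle arm, in mice with a transplanted tumour.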

[1] = dose: 100.0 mg/kg/injection, schedule: Q04DX003 (ip), vehicle: other
[2] = dose: 200.0 mg/kg/injection, schedule: Q04DX003 (ip), vehicle: other
[3] = dose: 400.0 mg/kg/injection, schedule: Q04DX003 (ip), vehicle: other
[4] = dose: 50.0 mg/kg/injection, schedule: Q01DX009 (ip), vehicle: saline with Tween-80
[5] = dose: 100.0 mg/kg/injection, schedule: Q01DX009 (ip), vehicle: saline with Tween-80
[6] = dose: 200.0 mg/kg/injection, schedule: Q01DX009 (ip), vehicle: saline with Tween-80

CC1CC=CCC1COC(OCC1CC=CCC1C)C1CC=CCC1C (configuration not stated)
T/C [1]: 104 % of control
T/C [2]: 114 % of control
T/C [3]: 119 % of control

O=C(CCC(O)c1ccccc1)NCc1ccccc1 (configuration not stated)
T/C (dose: 100.0 mg/kg/injection, schedule: Q01DX001 (ip), vehicle: saline with Tween-80): 104 % of control
T/C (dose: 200.0 mg/kg/injection, schedule: Q01DX001 (ip), vehicle: saline with Tween-80): 100 % of control
T/C (dose: 400.0 mg/kg/injection, schedule: Q01DX001 (ip), vehicle: saline with Tween-80): 90 % of control

CC1CN1P(=O)(OCCC#N)N1CC1C (configuration not stated)
T/C (dose: 25.0 mg/kg/injection, schedule: Q01DX009 (ip), vehicle: saline): 115 % of control
T/C (dose: 50.0 mg/kg/injection, schedule: Q01DX009 (ip), vehicle: saline): 97 % of control
T/C [1]: 163 % of control
T/C (dose: 150.0 mg/kg/injection, schedule: Q01DX009 (ip), vehicle: other): 170 % of control
T/C (dose: 200.0 mg/kg/injection, schedule: Q01DX009 (ip), vehicle: saline): 160 % of control and 203 % of control
T/C [2]: 227 % of control

CC(C)(C)OC(=O)NNC(=O)c1ccc([N+](=O)[O-])cc1
T/C (dose: 50.0 mg/kg/injection, schedule: Q01DX009 (ip), vehicle: Klucel (hydroxypropylcellulose) (HPC)): 90 % of control
T/C (dose: 200.0 mg/kg/injection, schedule: Q01DX009 (ip), vehicle: Klucel (hydroxypropylcellulose) (HPC)): 95 % of control

CCOC(=O)CNC(=O)CCCCSc1ncnc2nc[nH]c12
T/C (dose: 20.0 mg/kg/injection, schedule: Q01DX009 (ip), vehicle: Klucel (hydroxypropylcellulose) (HPC)): 97 % of control and 98 % of control
T/C (dose: 40.0 mg/kg/injection, schedule: Q01DX009 (ip), vehicle: Klucel (hydroxypropylcellulose) (HPC)): 91 % of control
T/C (dose: 80.0 mg/kg/injection, schedule: Q01DX009 (ip), vehicle: Klucel (hydroxypropylcellulose) (HPC)): 101 % of control and 111 % of control
T/C (dose: 160.0 mg/kg/injection, schedule: Q01DX009 (ip), vehicle: Klucel (hydroxypropylcellulose) (HPC)): 89 % of control and 100 % of control
T/C (dose: 320.0 mg/kg/injection, schedule: Q01DX009 (ip), vehicle: Klucel (hydroxypropylcellulose) (HPC)): 87 % of control and 89 % of control
T/C (dose: 640.0 mg/kg/injection, schedule: Q01DX009 (ip), vehicle: Klucel (hydroxypropylcellulose) (HPC)): 86 % of control

COc1cc2c(cc1OC)C(OC)N(C)c1c-2ccc2cc(OC)c(OC)cc12 (configuration not stated)
T/C (dose: 100.0 mg/kg/injection, schedule: Q04DX003 (ip), vehicle: water): 161 % of control
T/C (dose: 200.0 mg/kg/injection, schedule: Q04DX003 (ip), vehicle: water): 161 % of control
T/C (dose: 300.0 mg/kg/injection, schedule: Q04DX003 (ip), vehicle: water): 166 % of control
T/C (dose: 400.0 mg/kg/injection, schedule: Q04DX003 (ip), vehicle: water): 102 % of control

O=C(Nc1ncc([N+](=O)[O-])s1)c1cccc([N+](=O)[O-])c1
T/C (dose: 6.25 mg/kg/injection, schedule: Q01DX009 (ip), vehicle: saline with Tween-80): 99 % of control
T/C (dose: 12.5 mg/kg/injection, schedule: Q01DX009 (ip), vehicle: saline with Tween-80): 94 % of control
T/C (dose: 25.0 mg/kg/injection, schedule: Q01DX009 (ip), vehicle: saline with Tween-80): 93 % of control

Nc1nc(CNc2ccccc2)nc(Nc2ccccc2)n1
T/C (dose: 50.0 mg/kg/injection, schedule: Q04DX003 (ip), vehicle: saline sonified): 100 % of control
T/C (dose: 100.0 mg/kg/injection, schedule: Q04DX003 (ip), vehicle: saline sonified): 100 % of control
T/C (dose: 200.0 mg/kg/injection, schedule: Q04DX003 (ip), vehicle: saline sonified): 105 % of control

C[C@H](N)C(=O)N[C@@H]1[C@H]2C(=C(O)C[C@@H](O)[C@@H]2O)C(=O)O[C@@H]1C
T/C (dose: 100.0 mg/kg/injection, schedule: Q01DX010 (ip), vehicle: saline): 162 % of control
T/C (dose: 133.0 mg/kg/injection, schedule: Q04DX003 (ip), vehicle: saline): 112 % of control
T/C (dose: 266.0 mg/kg/injection, schedule: Q04DX003 (ip), vehicle: saline): 119 % of control
T/C (dose: 400.0 mg/kg/injection, schedule: Q01DX010 (ip), vehicle: saline): 162 % of control
T/C (dose: 532.0 mg/kg/injection, schedule: Q04DX003 (ip), vehicle: saline): 120 % of control
T/C (dose: 800.0 mg/kg/injection, schedule: Q01DX010 (ip), vehicle: saline): 175 % of control
T/C (dose: 2428.0 mg/kg/injection, schedule: Q04DX003 (ip), vehicle: saline): 166 % of control

CCCCCCCCCCN(CCCCCCCCCC)C1CC(OC2CC(O)(C(C)=O)Cc3c(O)c4c(c(O)c32)C(=O)c2c(OC)cccc2C4=O)OC(C)C1O (configuration not stated)
T/C (dose: 37.5 mg/kg/injection, schedule: Q04DX003 (ip), vehicle: other): 99 % of control
T/C (dose: 75.0 mg/kg/injection, schedule: Q04DX003 (ip), vehicle: other): 103 % of control
T/C (dose: 150.0 mg/kg/injection, schedule: Q04DX003 (ip), vehicle: other): 94 % of control
T/C (dose: 300.0 mg/kg/injection, schedule: Q04DX003 (ip), vehicle: other): 99 % of control
T/C [3]: 90 % of control

O=C(O)C1CC/C=C\CCC1 (configuration not stated)
T/C (dose: 100.0 mg/kg/injection, schedule: Q04DX003 (sc), vehicle: olive oil, sesame oil, peanut oil): 100 % of control
T/C (dose: 200.0 mg/kg/injection, schedule: Q04DX003 (sc), vehicle: olive oil, sesame oil, peanut oil): 100 % of control
T/C (dose: 400.0 mg/kg/injection, schedule: Q04DX003 (sc), vehicle: olive oil, sesame oil, peanut oil): 91 % of control

CCn1c(Cl)c(/C=N/Nc2ccc([N+](=O)[O-])cc2[N+](=O)[O-])c2ccccc21
T/C (dose: 100.0 mg/kg/injection, schedule: Q04DX002 (ip), vehicle: Klucel (hydroxypropylcellulose) (HPC)): 92 % of control
T/C (dose: 200.0 mg/kg/injection, schedule: Q04DX002 (ip), vehicle: Klucel (hydroxypropylcellulose) (HPC)): 92 % of control
T/C (dose: 400.0 mg/kg/injection, schedule: Q04DX002 (ip), vehicle: Klucel (hydroxypropylcellulose) (HPC)): 88 % of control

N#Cc1cc2c3c(c1)CCCN3CCC2
T/C (dose: 40.0 mg/kg/injection, schedule: Q01DX001 (ip), vehicle: saline with Tween-80): 100 % of control
T/C (dose: 80.0 mg/kg/injection, schedule: Q01DX001 (ip), vehicle: saline with Tween-80): 95 % of control
T/C (dose: 160.0 mg/kg/injection, schedule: Q01DX001 (ip), vehicle: saline with Tween-80): 109 % of control

O=C(Nc1ccccc1O)/C(Cl)=C/Cl
T/C (dose: 22.0 mg/kg/injection, schedule: Q01DX009 (ip), vehicle: saline with Tween-80): 122 % of control
T/C (dose: 33.0 mg/kg/injection, schedule: Q01DX009 (ip), vehicle: saline with Tween-80): 123 % of control

CCOC(=O)c1cc(N)c(C(=O)OCC)cc1N
T/C [4]: 99 % of control and 114 % of control
T/C [5]: 98 % of control and 108 % of control
T/C [6]: 106 % of control
T/C (dose: 400.0 mg/kg/injection, schedule: Q01DX009 (ip), vehicle: saline with Tween-80): 99 % of control

CCCCOC(=S)Nc1ccccc1
T/C (dose: 50.0 mg/kg/injection, schedule: Q01DX009 (ip), vehicle: other): 100 % of control
T/C (dose: 100.0 mg/kg/injection, schedule: Q01DX009 (ip), vehicle: other): 99 % of control

CC1=NN(CCO)C(=O)C1
T/C [4]: 95 % of control
T/C [5]: 92 % of control
T/C [6]: 93 % of control
